Assay results reported in patent publication US20200093776A1, “MUCOSAL IMMUNOSTIMULATOR” (Yamada Bee Company, Inc., priority 2015, published 2020).

Assays:
Caco-2 cells [1] = test: M-cell differentiation induction test, FACS analysis using GP2 as an indicator; assay type: cell-based, human; settings: Caco-2 single-layer film, final concentration 100 μM, cultured 3 days; for expression of GP2 (FACS): vs DMSO control
Description: (§1) As an in vitro M-cell model, Caco-2 cells derived from human intestinal epithelium cells were used. The Caco-2 cells were cultured in an EMEM medium (produced by Nissui Pharmaceutical Co., Ltd.) supplemented with 2% fetal calf serum (FCS, produced by CANSERA INTERNATIONAL), 2 mM glutamine (produced by Wako Pure Chemical Industries, Ltd.), and 0.1 mM nonessential amino acid (produced by Gibco) at 37° C. in the presence of 5% CO2. The cells were subcultured within a range of logarithmic growth (2.0×10^5 to 1.0×10^6 cells/mL). The cell concentration was determined by counting the number of living cells and the number of dead cells by the trypan blue staining method.
The induction of the differentiation of M cells by various fatty acids (10-hydroxydecanoic acid, (+/−)-3-hydroxydecanoic acid, (9R)-9,10-dihydroxydecanoic acid, and 10-hydroxy-2-(E)-decenoic acid) was analyzed by FACS using GP2 as an indicator. As the 10-hydroxydecanoic acid (10HDAA), one produced by SIGMA-ALDRICH was used; as the (+/−)-3-hydroxydecanoic acid (311DAA), one produced by SIGMA-ALDRICH was used; and as the 10-hydroxy-2-(E)-decenoic acid (10-HDA), one produced by Wako Pure Chemical Industries, Ltd. was used. The (9R)-9,10-dihydroxydecanoic acid (DDA-11) used was, synthesized based on the method described in Tetrahedron: Asymmetry, 2009, 20, pp. 457-460, by tosylating (4R)-4-(2-hydroxyethyl)-2,2-dimethyl-1,3-dioxolane, and extending the chain with 5-bromo-1-pentene by a Grignard reaction, followed by ozone degradation, Wittig reaction with diethylphosphonic acid ethyl ester, hydrogenation by a catalytic hydrogenation reaction, removal of acetonide by acetic acid treatment, and removal of the ethyl group by potassium hydroxide treatment.
Each of the above fatty acids was prepared as a DMSO solution (10 mM). After the Caco-2 cells were seeded in a 6-well plate and allowed to form a single-layer film, each of the above fatty acids was added so that the final concentration was […]. The same amount of DMSO was added as a control. The medium was as described above. After addition, the cells were cultured at 37° C. in the presence of 5% CO2 for 3 days. After culture, the cells were collected with 1 mM EDTA.2Na/PBS(−) (pH 7.2), and stained with rabbit anti-GP2 antibody (produced by IMGENEX) and Alexa 488-labeled anti-rabbit antibody (produced by Molecular probes). The stained cells were analyzed by FACS (produced by BECKMAN COULTER), and GP2 expression levels were quantified.

Caco-2 cells [2] = test: M-cell differentiation induction test, morphological analysis by electron microscope; assay type: cell-based, human; settings: Caco-2 in Transwell insert, 100 μM applied from the apical side, 3 days
Description: as §1
After the Caco-2 cells were seeded at 2×10^5 cells in a Transwell insert ([…] Transwell, produced by Corning) and allowed to form a single-layer film, 10-hydroxydecanoic acid (final concentration: […]) was applied from the apical side of the single-layer film, and the cells were cultured at 37° C. in the presence of 5% CO2 for 3 days.

cynomolgus monkeys = system: cynomolgus monkeys; parameters: species or system Macaca fascicularis; settings: cynomolgus monkey, in vivo, po

Structure (SMILES)	intensity of induction of GP2 expression compared with (+/−)-3-hydroxydecanoic acid (Caco-2 cells [1])	expression of GP2 (FACS) (Caco-2 cells [1])	cell morphology (microvilli, M cell-like cells) (Caco-2 cells [2])	anti-Fetuin IgA antibody titer in the feces (cynomolgus monkeys)	anti-influenza virus IgA antibody titer in the feces (cynomolgus monkeys)	anti-poliovirus IgA antibody titer in the feces (cynomolgus monkeys)
O=C(O)CCCCCCCCCO [10-hydroxydecanoic acid]	induced more intensely the expression of GP2	induced the expression of GP2	cells with short microvilli were observed	increases	increases	increases
O=C(O)/C=C/CCCCCCCO [10-hydroxy-2-(E)-decenoic acid, reference compound]		did not induce the expression of GP2				
O=C(O)CCCCCCC[C@@H](O)CO [(9R)-9,10-dihydroxydecanoic acid, reference compound]		did not induce the expression of GP2				
CCCCCCCC(O)CC(=O)O (racemic) [(+/−)-3-hydroxydecanoic acid]		induced the expression of GP2				
